According to patent publication US11389456B2, “Compounds and methods for treating oxalate-related diseases” (OxaluRx, Inc., priority 2018, dated 2022):
In brackets after ≈: the same amount, converted by molar mass. Read-outs that look alike come from different tables or passages of the source.

Experiments:
[1] = system: CD1 mice administered 1% ethylene glycol; test: Mouse ethylene glycol model of hyperoxaluria, urinary oxalate; type: in vivo; details: mice, once-daily oral gavage, 100 mg/kg
Procedure: Mouse Models of Hyperoxaluria for Determining In Vivo Efficacy of hGOX Inhibitors
Male CD1 mice, 6-8 weeks of age (Charles River Labs, Wilmington, Mass.) were administered 1% ethylene glycol ad libitum their drinking water for 14 days. The mice were housed in individual cages, fed ad libitum and 24-h urine collections were initiated on days 1, 5, 9 and 14 using a 15-rack metabolic cage system equipped with a CCS2000 chiller system (Hatteras Instruments, Cary, N.C.) to maintain the samples at 4° C. during collection. Hydrochloric acid (100 μL of 6N) added to the collection vials to acidify the samples and prevent degradation of oxalate before evaluation.
Urine samples were maintained at 4° C. and urinary oxalate concentrations were determined within 24 hours of sample collection using a Trinity Biotech oxalate assay kit (Catalog #591-D). The assay was an enzymatic method based on the oxidation of oxalate by oxalate oxidase followed by measurement of hydrogen peroxide (H2O2) produced during the peroxidase-catalyzed reaction. Briefly, a 1-mL aliquot of each sample was diluted with an equal volume of assay diluent to bring the pH to between 5.0 and 7.0, then placed into purifier tubes (provided in the kit) and mixed for 5 min. The tubes were centrifuged for 5 min at 2000 rpm (1500×g) and the supernatants collected for the oxalate assay. The procedure was specific for oxalate with no special equipment and was easily adaptable for clinical automated analyzers. Each assay included a standard curve prepared with a standardized oxalate control sample (included in the kit) and internal assay control samples for both a normal (0.2-0.3 mmol/L) and elevated (0.86-1.21 mmol/L) level of oxalate.
To evaluate in vivo efficacy, mice were dosed by once-daily oral gavage of compound I-002 in an appropriate vehicle (e.g., phosphate-buffered saline, pH 7.4) at a dosage of 100 mg/kg. […]
The effect of example I-001 in the ethylene glycol model using CD-1 mice was evaluated by twice-daily, oral gavage dosing at 50 mg/kg for 6 days (days 5-11). […]

[2] = Metabolic stability in human liver microsomal preparation; type: in vitro ADME; details: pH 7.4, human liver microsomes, NADPH, 37° C.; for half-life at 1 μM: 0-45 min, read-out: Metabolic Stability t1/2
In short: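 Compound at 1.5 μM with 0.75 mg/mL human liver microsomes (concentrations before NADPH addition) in 0.1 M potassium phosphate, 1 mM EDTA, pH 7.4 was preincubated 5 min at 37 °C, then started with NADPH. Samples at 0, 5, 15, 30 and 45 min were quenched with acetonitrile/internal standard and analysed by LC/MS.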

[3] = target: glycolate oxidase (GOX) in HepaRG-CAR cells (Homo sapiens (Human), UniProt Q9UJM8); test: HepaRG-CAR cell-based assay for quantitation of glycolate oxidase inhibition (cellular glycolate flux, GC-MS)
Sequence of glycolate oxidase (GOX) in HepaRG-CAR cells (Q9UJM8 whole entry): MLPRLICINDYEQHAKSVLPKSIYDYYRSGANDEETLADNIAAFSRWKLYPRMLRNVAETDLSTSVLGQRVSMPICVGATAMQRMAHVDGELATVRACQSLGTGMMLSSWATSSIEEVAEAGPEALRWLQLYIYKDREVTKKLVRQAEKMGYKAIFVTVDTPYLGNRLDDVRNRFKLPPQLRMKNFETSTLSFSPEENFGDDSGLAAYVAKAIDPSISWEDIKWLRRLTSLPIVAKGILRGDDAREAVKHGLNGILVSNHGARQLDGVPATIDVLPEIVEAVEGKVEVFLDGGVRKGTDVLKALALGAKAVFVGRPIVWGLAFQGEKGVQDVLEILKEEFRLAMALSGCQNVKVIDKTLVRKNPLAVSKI

[4] = Protein binding (plasma equilibrium dialysis); type: in vitro ADME; details: 5 hours at 37° C.
In short: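 Compound spiked into plasma at 1 μM final (0.2% DMSO) and dialysed against phosphate buffer for 5 hours at 37 °C with shaking. Donor and receiver samples, matrix-matched and acetonitrile-quenched with internal standard, quantified by LC/MS/MS alongside 0-hour plasma samples.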

[5] = Solubility in phosphate buffered saline (PBS), pH 7.4; type: physicochemical; details: phosphate buffer (PBS), aqueous buffer, kinetic from dmso stock; phosphate buffered saline pH 7.4, 1% DMSO, 1 hour shaking at room temperature
In short: (§1)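 DMSO stock (10 mM) diluted into 100 mM phosphate buffer pH 7.4, or into deionized distilled water for the aqueous assay, at 1% final DMSO and shaken 1 h at room temperature. After centrifugation, supernatants quantified by LC-MS/MS against a calibration curve with internal standard.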

[6] = target: recombinant full-length human hydroxyacid oxidase 1 (HAO1), the equivalent of hGOX (Homo sapiens (Human), UniProt Q9UJM8); test: In-vitro human glycolate oxidase (hGOX) assay (Amplex red/HRP fluorescence); type: biochemical
Sequence of recombinant full-length human hydroxyacid oxidase 1 (HAO1), the equivalent of hGOX (Q9UJM8 whole entry): as above
Procedure: Biological Activity Assay: In-Vitro Human Glycolate Oxidase (hGOX) Assay
The in-vitro glycolate oxidase assay was performed using recombinant full-length human hydroxyacid oxidase 1 (HAO1), the equivalent of hGOX. […] Purified HAO1 was dissolved in assay buffer consisting of 10 mM NaCl, 110 mM KCl, 2 mM MgCl2, 50 mM HEPES (pH 7.4) and 0.01% Triton™ X-100.

[7] = Stability in human plasma; type: in vitro ADME; details: read-out: Plasma Stability T1/2
In short: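 Pooled human plasma (pH 7.4-8) at 37° C, test compound spiked from a 0.02 mM solution in phosphate buffer with 0.5% BSA. Samples taken at 0, 5, 15, 30, 45 and 60 min, quenched with acetonitrile containing internal standard, and remaining compound measured by LC/MS.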

[8] = Solubility in aqueous solution (deionized, distilled water); type: physicochemical; details: kinetic from dmso stock, 1% DMSO, read-out: Aqueous Solubility H2O
In short: as §1

[9] = HepaRG-CAR cells, 500 μM glycolate, 48 hours incubation, read-out: IC50

Row | SMILES | reduction in urinary oxalate [1] | CLint scaled at 1 μM [2] [mL/min/kg] | half-life at 1 μM [2] [h] | IC50 [3] [µM] | recovery at 5 h, 1 μM [4] [%] | solubility at 1 h [5] [µM] | IC50 [6] [µM] | half-life at 2 μM [7] [h] | solubility at 1 h [8] [µM] | IC50 [3, 9] [µM]
1 | CCOC(=O)c1nn[nH]c1Sc1ccc(Cl)cc1 [Example I-002, Ethyl 5-((4-chlorophenyl)thio)-1H-1,2,3-triazole-4-carboxylate] | statistically significant reduction | – | – | – | – | – | – | – | – | –
2 | N#Cc1cccc(-c2ccc(Oc3[nH]nnc3C(=O)O)cc2)c1 [Example I-256, 5-((3′-Cyano-[1,1′-biphenyl]-4-yl)oxy)-1H-1,2,3-triazole-4-carboxylic acid] | – | 0.4 | 71.6 | 10 | 113 | 90.5 (≈ 27.7 µg/mL) | 0.022 | 8.52 | 86.9 (≈ 26.6 µg/mL) | –
3 | Cc1ccc(-c2cccc(Oc3[nH]nnc3C(=O)O)c2)cc1 [Example I-251, 5-((4′-Methyl-[1,1′-biphenyl]-3-yl)oxy)-1H-1,2,3-triazole-4-carboxylic acid] | – | 17.7 | 1.64 | – | 98.2 | 108 (≈ 31.9 µg/mL) | 0.013 | 4.87 | 101 (≈ 29.8 µg/mL) | 2.5
4 | O=C(O)c1nn[nH]c1Oc1ccc(-c2ccc(Br)cc2)cc1 [Example I-154, 5-((4′-Bromo-[1,1′-biphenyl]-4-yl)oxy)-1H-1,2,3-triazole-4-carboxylic acid] | – | < 0.15 | > 83.3 | – | 98.5 | 93.7 (≈ 33.7 µg/mL) | 0.005 | 1.85 | 29.1 (≈ 10.5 µg/mL) | > 10
5 | O=C(O)c1nn[nH]c1Oc1cccc(-c2ccccc2F)c1 [Example I-254, 5-((2′-Fluoro-[1,1′-biphenyl]-3-yl)oxy)-1H-1,2,3-triazole-4-carboxylic acid] | – | 3.82 | 7.58 | – | 94.4 | 114 (≈ 34.1 µg/mL) | 0.017 | 2.51 | 106 (≈ 31.7 µg/mL) | 2.5
